# Biological target: T1, chimeric human H3 receptor (Homo sapiens, UniProt Q9Y5N1)
# T1 construct: rat Galpha-i2 (Gnai2, rat); made in house; host or cells: Sf9 insect cells (baculovirus); P2 membranes
# Assay: Chimeric human H3 receptor screening GTP binding assay (inhibition of histamine-stimulated GTP-gamma35S binding, Example 8)
# Assay type: biochemical
# Conditions: symbol ! in Ki; test compound 4 μM, 1 μM histamine; read-out: percent inhibition of agonist-induced GTP-gammaS binding to H3
# Method: This Example illustrates a representative screening assay for evaluating inhibition of histamine-stimulated GTP-gamma^35S binding. Such GTP binding activity can be used to identify H3 antagonists and inverse agonists. A compound analyzed in this assay is referred to herein as a “test compound,” and the initial identification of antagonists and inverse agonists is performed using a test compound concentration of 4 μM.
# Four independent baculoviral stocks (one directing the expression of the chimeric human H3 receptor and three directing the expression of each of the three subunits of a heterotrimeric G-protein) are used to infect a culture of Sƒ9 cells as described above. P2 membranes are prepared as described above, and are resuspended by Dounce homogenization (tight pestle) in GTP binding assay buffer (50 mM Tris pH 7.4, 120 mM NaCl, 5 mM MgCl2, 2 mM EGTA, 1 mg/ml BSA, 0.2 mg/ml bacitracin, 0.02 mg/ml aprotinin, 0.01 mg/ml saponin, 10 μM GDP) and added to assay tubes at a concentration of 35 μg protein/reaction tube. Non-radiolabeled test compounds are added to separate reactions at a concentration of 4 μM along with 1 μM histamine (agonist). Reactions are initiated by the addition of 125 pM GTP-gamma^35S with a final assay volume of 0.20 ml.
# After a 60-min incubation at room temperature, reactions are terminated by vacuum filtration over GF/C filters (pre-soaked in 50 mM Tris pH 7.4, 120 mM NaCl plus 0.1% BSA) followed by washing with ice-cold buffer (50 mM Tris pH 7.4, 120 mM NaCl). The amount of receptor-bound (and thereby membrane-bound) GTP-gamma^35S is determined by measuring the bound radioactivity, preferably by liquid scintillation spectrometry of the washed filters. Non-specific binding is determined using 10 uM GTP-gammaS and typically represents less than 5 percent of total binding. After subtraction of non-specific binding, data is expressed as percent inhibition of 1 μM histamine signal.
# Neutral antagonists are those test compounds that reduce the histamine-stimulated GTP binding activity towards, but not below, baseline levels. In contrast, in the absence of added histamine, inverse agonists reduce the GTP binding activity of the receptor-containing membranes below baseline. Any test compound that elevates GTP binding activity above baseline in the absence of added histamine in this assay is defined as having agonist activity.
# T1 sequence (Q9Y5N1 with tags, fused parts or gaps): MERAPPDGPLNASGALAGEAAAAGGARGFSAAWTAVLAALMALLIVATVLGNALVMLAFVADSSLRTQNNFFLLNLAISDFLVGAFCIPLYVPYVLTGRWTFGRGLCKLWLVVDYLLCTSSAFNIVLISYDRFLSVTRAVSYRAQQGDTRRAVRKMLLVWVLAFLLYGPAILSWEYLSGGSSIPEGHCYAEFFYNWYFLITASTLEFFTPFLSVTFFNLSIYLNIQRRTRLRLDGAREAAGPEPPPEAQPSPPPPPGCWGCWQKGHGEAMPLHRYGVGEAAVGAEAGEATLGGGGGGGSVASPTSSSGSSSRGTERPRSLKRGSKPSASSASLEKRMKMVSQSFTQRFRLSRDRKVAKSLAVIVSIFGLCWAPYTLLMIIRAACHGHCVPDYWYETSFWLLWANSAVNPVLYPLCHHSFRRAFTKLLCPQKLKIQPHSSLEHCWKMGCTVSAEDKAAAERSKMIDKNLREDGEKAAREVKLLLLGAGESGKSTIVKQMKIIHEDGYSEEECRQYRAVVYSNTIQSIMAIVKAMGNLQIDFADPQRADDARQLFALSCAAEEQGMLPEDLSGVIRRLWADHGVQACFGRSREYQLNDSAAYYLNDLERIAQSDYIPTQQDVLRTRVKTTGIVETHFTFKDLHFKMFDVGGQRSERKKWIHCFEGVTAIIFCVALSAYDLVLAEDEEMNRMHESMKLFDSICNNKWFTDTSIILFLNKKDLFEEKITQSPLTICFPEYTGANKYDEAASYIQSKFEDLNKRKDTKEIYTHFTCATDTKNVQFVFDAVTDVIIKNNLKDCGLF
row,SMILES,inhibition at 4 µM [%]
1,"CCN(CCN(C)C)c1ncnc2c1CCN(Cc1ccccc1)C2 [Compound 14, N-(7-benzyl-5,6,7,8-tetrahydropyrido[3,4-d]pyrimidin-4-yl)-N-ethyl-N′,N′-dimethylethane-1,2-diamine]",≥ 90
2,"CCN(CC)C1CCN(c2ncnc3c2CCN(Cc2ccccc2)C3)C1 (centres unmarked) [Compound 15, 1-(7-benzyl-5,6,7,8-tetrahydropyrido[3,4-d]pyrimidin-4-yl)-N,N-diethylpyrrolidin-3-amine]",≥ 90
3,"c1ccc(CN2CCc3c(ncnc3N3CCN(C4CCCC4)CC3)C2)cc1 [Compound 16, 7-benzyl-4-(4-cyclopentylpiperazin-1-yl)-5,6,7,8-tetrahydropyrido[3,4-d]pyrimidine]",≥ 90
4,"c1ccc(CN2CCc3c(ncnc3N3CCC(N4CCCCC4)CC3)C2)cc1 [Compound 17, 1′-(7-benzyl-5,6,7,8-tetrahydropyrido[3,4-d]pyrimidin-4-yl)-1,4′-bipiperidine]",≥ 90
5,"c1ccc(CN2CCc3c(ncnc3N3CCC(N4CCCCCC4)CC3)C2)cc1 [Compound 18, 4-(4-azepan-1-ylpiperidin-1-yl)-7-benzyl-5,6,7,8-tetrahydropyrido[3,4-d]pyrimidine]",≥ 90
6,"c1ccc(CN2CCc3c(ncnc3N3CCN(CCCN4CCCC4)CC3)C2)cc1 [Compound 19, 7-benzyl-4-[4-(3-pyrrolidin-1-ylpropyl)piperazin-1-yl]-5,6,7,8-tetrahydropyrido[3,4-d]pyrimidine]",≥ 90
7,"CCN(CC)CCCN1CCN(c2ncnc3c2CCN(Cc2ccccc2)C3)CC1 [Compound 20, 3-[4-(7-benzyl-5,6,7,8-tetrahydropyrido[3,4-d]pyrimidin-4-yl)piperazin-1-yl]-N,N-diethylpropan-1-amine]",≥ 90
8,"c1ccc(CN2CCc3c(ncnc3N3CCN(CCCN4CCCCC4)CC3)C2)cc1 [Compound 21, 7-benzyl-4-[4-(3-piperidin-1-ylpropyl)piperazin-1-yl]-5,6,7,8-tetrahydropyrido[3,4-d]pyrimidine]",≥ 90
9,"COc1ccc(C(=O)N2CCc3c(ncnc3N3CCN(C4CCC4)CC3)C2)cc1 [Compound 27, 4-(4-cyclobutylpiperazin-1-yl)-7-(4-methoxybenzoyl)-5,6,7,8-tetrahydropyrido[3,4-d]pyrimidine]",≥ 90
10,"O=C(c1ccc(F)cc1)N1CCc2c(ncnc2N2CCN(C3CCC3)CC2)C1 [Compound 30, 4-(4-cyclobutylpiperazin-1-yl)-7-(4-fluorobenzoyl)-5,6,7,8-tetrahydropyrido[3,4-d]pyrimidine]",≥ 90

# Next, values leading:
row,inhibition at 4 µM [%],SMILES
1,≥ 90,"O=C(c1ccccc1)N1CCc2c(ncnc2N2CCN(C3CCC3)CC2)C1 [Compound 22, 7-benzoyl-4-(4-cyclobutylpiperazin-1-yl)-5,6,7,8-tetrahydropyrido[3,4-d]pyrimidine]"
2,≥ 90,"Cc1cccc(C(=O)N2CCc3c(ncnc3N3CCN(C4CCC4)CC3)C2)c1 [Compound 23, 4-(4-cyclobutylpiperazin-1-yl)-7-(3-methylbenzoyl)-5,6,7,8-tetrahydropyrido[3,4-d]pyrimidine]"
3,≥ 90,"Cc1ccc(C(=O)N2CCc3c(ncnc3N3CCN(C4CCC4)CC3)C2)cc1 [Compound 24, 4-(4-cyclobutylpiperazin-1-yl)-7-(4-methylbenzoyl)-5,6,7,8-tetrahydropyrido[3,4-d]pyrimidine]"
4,≥ 90,"Cc1ccccc1C(=O)N1CCc2c(ncnc2N2CCN(C3CCC3)CC2)C1 [Compound 25, 4-(4-cyclobutylpiperazin-1-yl)-7-(2-methylbenzoyl)-5,6,7,8-tetrahydropyrido[3,4-d]pyrimidine]"
5,≥ 90,"COc1cccc(C(=O)N2CCc3c(ncnc3N3CCN(C4CCC4)CC3)C2)c1 [Compound 26, 4-(4-cyclobutylpiperazin-1-yl)-7-(3-methoxybenzoyl)-5,6,7,8-tetrahydropyrido[3,4-d]pyrimidine]"
6,≥ 90,"COc1ccccc1C(=O)N1CCc2c(ncnc2N2CCN(C3CCC3)CC2)C1 [Compound 28, 4-(4-cyclobutylpiperazin-1-yl)-7-(2-methoxybenzoyl)-5,6,7,8-tetrahydropyrido[3,4-d]pyrimidine]"
7,≥ 90,"O=C(c1cccc(F)c1)N1CCc2c(ncnc2N2CCN(C3CCC3)CC2)C1 [Compound 29, 4-(4-cyclobutylpiperazin-1-yl)-7-(3-fluorobenzoyl)-5,6,7,8-tetrahydropyrido[3,4-d]pyrimidine]"
8,≥ 90,"O=C(c1ccccc1F)N1CCc2c(ncnc2N2CCN(C3CCC3)CC2)C1 [Compound 31, 4-(4-cyclobutylpiperazin-1-yl)-7-(2-fluorobenzoyl)-5,6,7,8-tetrahydropyrido[3,4-d]pyrimidine]"
9,≥ 90,"O=C(c1ccco1)N1CCc2c(ncnc2N2CCN(C3CCC3)CC2)C1 [Compound 32, 4-(4-cyclobutylpiperazin-1-yl)-7-(2-furoyl)-5,6,7,8-tetrahydropyrido[3,4-d]pyrimidine]"
10,≥ 90,"O=C(c1ccoc1)N1CCc2c(ncnc2N2CCN(C3CCC3)CC2)C1 [Compound 33, 4-(4-cyclobutylpiperazin-1-yl)-7-(3-furoyl)-5,6,7,8-tetrahydropyrido[3,4-d]pyrimidine]"
11,≥ 90,"O=C(c1cccnc1)N1CCc2c(ncnc2N2CCN(C3CCC3)CC2)C1 [Compound 34, 4-(4-cyclobutylpiperazin-1-yl)-7-(pyridin-3-ylcarbonyl)-5,6,7,8-tetrahydropyrido[3,4-d]pyrimidine]"
12,≥ 90,"O=C(c1ccccn1)N1CCc2c(ncnc2N2CCN(C3CCC3)CC2)C1 [Compound 35, 4-(4-cyclobutylpiperazin-1-yl)-7-(pyridin-2-ylcarbonyl)-5,6,7,8-tetrahydropyrido[3,4-d]pyrimidine]"
13,≥ 90,"O=C(c1ccno1)N1CCc2c(ncnc2N2CCN(C3CCC3)CC2)C1 [Compound 36, 4-(4-cyclobutylpiperazin-1-yl)-7-(isoxazol-5-ylcarbonyl)-5,6,7,8-tetrahydropyrido[3,4-d]pyrimidine]"
14,≥ 90,"Cc1noc(C)c1C(=O)N1CCc2c(ncnc2N2CCN(C3CCC3)CC2)C1 [Compound 37, 4-(4-cyclobutylpiperazin-1-yl)-7-[(3,5-dimethylisoxazol-4-yl)carbonyl]-5,6,7,8-tetrahydropyrido[3,4-d]pyrimidine]"
15,≥ 90,"Cc1ncccc1C(=O)N1CCc2c(ncnc2N2CCN(C3CCC3)CC2)C1 [Compound 38, 4-(4-cyclobutylpiperazin-1-yl)-7-[(2-methylpyridin-3-yl)carbonyl]-5,6,7,8-tetrahydropyrido[3,4-d]pyrimidine]"
16,≥ 90,"Cc1cc(C(=O)N2CCc3c(ncnc3N3CCN(C4CCC4)CC3)C2)nn1C [Compound 39, 4-(4-cyclobutylpiperazin-1-yl)-7-[(1,5-dimethyl-1H-pyrazol-3-yl)carbonyl]-5,6,7,8-tetrahydropyrido[3,4-d]pyrimidine]"

# Same assay, conditions: test compound 4 μM, 1 μM histamine; read-out: percent inhibition of agonist-induced GTP-gammaS binding to H3
row,inhibition at 4 µM [%],SMILES
1,≥ 90,"c1ccc(CN2CCc3c(ncnc3N3CCN(C4CCC4)CC3)C2)cc1 [Compound 1, 7-Benzyl-4-(4-cyclobutylpiperazin-1-yl)-5,6,7,8-tetrahydropyrido[3,4-d]pyrimidine]"
2,≥ 90,"c1nc2c(c(N3CCN(C4CCC4)CC3)n1)CCN(CC1CCCCC1)C2 [Compound 2, 4-(4-Cyclobutylpiperazin-1-yl)-7-cyclohexylmethyl-5,6,7,8-tetrahydropyrido[3,4-d]pyrimidine]"
3,≥ 90,"CC(=O)c1ccc(N2CCc3c(ncnc3N3CCN(C4CCC4)CC3)C2)cc1 [Compound 3, 1-{4-[4-(4-Cyclobutylpiperazin-1-yl)-5,8-dihydropyrido[3.4-d]pyrimidin-7(6H)-yl]phenyl}Ethanone]"
4,≥ 90,"O=C(c1ccc(F)cc1)N1CCc2cnc(N3CCN(C4CCC4)CC3)nc2CC1 [Compound 10, [2-(4-Cyclobutyl-piperazin-1-yl)-5,6,8,9-tetrahydro-pyrimido[4.5-d]azepin-7-yl]-(4-fluoro-phenyl)-methanone]"
5,≥ 90,"CC(=O)c1ccc(N2CCc3cnc(N4CCN(C5CCC5)CC4)nc3CC2)cc1 [Compound 11, 1-{4-[2-(4-Cyclobutyl-piperazin-1-yl)-5,6,8,9-tetrahydro-pyrimido[4.5-d]azepin-7-yl]-phenyl}-ethanone]"
6,≥ 90,"O=S(=O)(c1ccccc1)N1CCc2cnc(N3CCN(C4CCC4)CC3)nc2CC1 [Compound 12, 7-Benzenesulfonyl-2-(4-Cyclobutyl-piperazin-1-yl)-6,7,8,9-tetrahydro-5H-pyrimido[4.5-d]azepine]"

# Source: patent US20080051387A1, “TETRAHYDROPYRIDO[3,4-D]PYRIMIDINES AND RELATED ANALOGUES” (priority 2006, published 2008)
